Test results: US11585779B2, “Biosensor and method of using the same for evaluation of antioxidant capacity” (Nanjing Agricultural University, priority 2017, dated 2023)

System: macrophage RAW264.7
Assay: Evaluation of antioxidant capacity with macrophage RAW264.7 biosensor (PMA stimulation, differential pulse voltammetry)
Type: cell-based
Details: 0.6% solution in absolute ethanol; 100 ng/mL PMA, 10 min; 0.1 M PBS
Protocol: The electrochemical experiments in 3) can be a differential pulse voltammetry (DPV), and the DPV conditions can be as follows: scanning range: -0.2 to 0.6 V, amplitude: 0.05 V.
The relative antioxidant capacity value in 5) can be calculated by the following equation:
[formula] where RAC is the relative antioxidant capacity value, I0 is the peak current obtained in the presence of 100 ng/mL PMA, Is is the peak current in the presence of the test sample, and I is the peak current in the absence of PMA.
immersing a third biosensor in Tyrode's buffer at 37° C. for 10 min, washing the third biosensor with PBS buffer for 3 times, connecting the third biosensor to a third electrochemical workstation, and conducting an electrochemical experiment of the third biosensor in a solution containing 1.0 mM Fe(CN)6^3−, 1.0 mM Fe(CN)6^4− or 0.1 M PBS, recording the current signal, reading the peak current and marking as I.
In the following examples, the differential pulse voltammetry is selected as the electrochemical experiment method.
Positive control: a first biosensor was immersed in Tyrode's buffer at 37° C. (preparation of Tyrode's solution: 1000 mL Tyrode's solution: NaCl 8.0 g, 10% KCl 2.0 mL (0.2 g), 10% MgSO4.7H2O 2.6 mL (0.26 g), 5% NaH2PO4.2H2O 1.3 mL (0.065 g), NaHCO3 1.0 g, 1 M CaCl2 1.8 mL (0.2 g), glucose 1.0 g), and PMA was then added to a concentration of 100 ng/mL. 10 min later, the first biosensor was washed with PBS buffer for 3 times (phosphate buffered saline) at pH=7.4, and then was connected to the electrochemical workstation. The first biosensor was electrochemically detected in a solution containing 1.0 mM Fe(CN)6^3−, and the current signal was recorded and the peak current was read as I0=84.6 μA.
Blank control: a third biosensor was immersed in Tyrode's buffer at 37° C. […] The […] was electrochemically detected in a solution containing 1.0 mM Fe(CN)6^3−, and the current signal was recorded and the peak current was read as I=21.5 μA. […]
3) Electrochemical experiment: the second biosensor was used for electrochemical experiment in a PBS solution containing 1.0 mM Fe(CN)6^3−. Subsequently, the current signal and the peak current ls1 were recorded and read, respectively. […]
3) Electrochemical experiment: the biosensor IV was used for electrochemical experiment in a solution containing 1.0 mM Fe(CN)6^4−. Subsequently, the current signal was recorded and the peak current Is2 was read, where Is2=24.7 μA. […]
3) Electrochemical experiment: the biosensor was used for electrochemical experiment in a solution containing 0.1 M (mol/L) PBS. Subsequently, the current signal was recorded and the peak current Is3 was read, where Is3=26.5 μA. […]

Structure (SMILES) | peak current Is4 [μA] | peak current Is3 [μA] | relative antioxidant value (RAC3) [%] | relative antioxidant value (RAC4) [%]
O=C1O[C@H]([C@@H](O)CO)C(O)=C1O [VC, Vitamin C] | 25.3 |  |  | 
Cc1c(C)c2c(c(C)c1O)CC[C@@](C)(CCC[C@H](C)CCC[C@H](C)CCCC(C)C)O2 [VE, Vitamin E] |  | 26.5 | 92.2 | 94.2
